Earlier results, collected in PMC8313041 (Heterocyclic communications, 2015).

Legend:
[1] = tested on: human leukemic T-cell lines

SMILES: Nc1ncnc2c1ncn2[C@@H]1O[C@H](CO)[C@@H](F)[C@@H]1F [Compound 2, 9-(2′,3′-dideoxy-2′,3′-difluoro-β-D-arabinofuranosyl)adenine]
- in vitro potency against HIV-1 compared with lodenosine (HIV-1): more potent in vitro against HIV-1 than lodenosine 1

SMILES: Nc1nc2c(ncn2[C@@H]2O[C@H](CO)[C@@H](O)[C@@H]2F)c(=O)[nH]1 [Compound 3, 9-(2′-deoxy-2′-fluoro-β-D-arabinofuranosyl)guanine]
- activity against human leukemic T-cell lines [1]: displays activity against human leukemic T-cell lines

SMILES: Nc1ncnc2c1ncn2[C@@H]1O[C@H](CO)C[C@@H]1F [lodenosine, 2′-β-fluoro-2′,3′-dideoxyadenosine]
- in vitro activity against HIV-1 (HIV-1): displays in vitro activity against HIV-1
